Non-standard residues stand in square brackets, D forms with d. Residues, ends and D or L forms follow the SMILES beside them. hArg = N=C(N)NCCCC[C@H](N)C(=O)O; Aad = N[C@@H](CCCC(=O)O)C(=O)O; AllylGly = C=CC[C@H](N)C(=O)O; hLeu = CC(C)CC[C@H](N)C(=O)O; Nle = CCCC[C@H](N)C(=O)O Where only a bound is given, the exact number is not on record here.

Type in all cases: biochemical
In one test the target is T1, human proteinase 3 (Homo sapiens, UniProt P24158).
T1 construct: purchased Elastin Products Company, USA
T1 sequence (P24158 28-248): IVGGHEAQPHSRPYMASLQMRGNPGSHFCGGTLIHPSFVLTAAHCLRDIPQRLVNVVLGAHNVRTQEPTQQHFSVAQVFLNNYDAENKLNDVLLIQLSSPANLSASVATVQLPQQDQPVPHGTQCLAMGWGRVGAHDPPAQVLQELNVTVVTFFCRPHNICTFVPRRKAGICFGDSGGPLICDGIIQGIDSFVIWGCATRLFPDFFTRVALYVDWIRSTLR
Kind of test: Inhibition of human proteinase 3 (Boc-Ala-Ala-Nva-SBzl). The note with it: for IC50: 10 nM enzyme, 1 mM substrate, 37° C., pH7.4, read-out: Human proteinase 3 (hPr3) IC50; for hNE/hPr3 selectivity: ratio of hPr3 IC50 to hNE IC50. As to the method:
2.4. Inhibition of Human Proteinase 3
The inactivation of human proteinase 3 (Elastin Products Company, USA) by the peptides of the invention using synthetic tripeptidic substrate Boc-Ala-Ala-Nva-SBzl (Elastin Products Company, USA) was determined as follows:
The above substrate (1 mM), 4,4′-dithiodipyridine (250 μM) and human proteinase 3 (10 nM) were incubated at 37° C. with serial dilutions of the peptides (0.5% DMSO final) in assay buffer (50 mM Tris, pH7.4, 150 mM NaCl, 0.01% Tween20). The reaction process was followed by monitoring the change in absorbance at 340 nm for 30 minutes. Control assays with the same assay set-up as above, but without peptide, ran linearly. The dose-response data were fitted to the 4-parameter Hill equation providing the IC50 value using Graphpad (Prism 5).

The target in test [1] is T2, porcine pancreatic elastase (Sus scrofa, UniProt P00772).
T2 construct: purchased Sigma, USA
T2 sequence (P00772 27-266): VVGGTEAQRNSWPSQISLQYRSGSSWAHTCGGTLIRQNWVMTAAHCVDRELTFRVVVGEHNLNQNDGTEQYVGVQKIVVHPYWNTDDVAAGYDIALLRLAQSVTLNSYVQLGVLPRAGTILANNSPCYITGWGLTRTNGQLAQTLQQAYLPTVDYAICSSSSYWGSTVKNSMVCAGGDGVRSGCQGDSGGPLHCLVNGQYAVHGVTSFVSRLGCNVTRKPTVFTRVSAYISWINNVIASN
Kind of test: Inhibition of porcine pancreatic elastase (MeOSuc-AAA-pNA hydrolysis). The note with it: for IC50: 15 nM enzyme, 1 mM substrate, 37° C., pH8, read-out: Porcine pancreatic elastase (PPE) IC50; for hNE/PPE selectivity: ratio of PPE IC50 to hNE IC50. As to the method: 2.3. Inhibition of Porcine Pancreatic Elastase
The ability of the peptides of the invention to inhibit the hydrolysis activity of porcine pancreatic elastase (Sigma, USA) using the synthetic tripeptidic substrate MeOSuc-AAA-pNA (Bachem, Switzerland) was determined as follows:
The above substrate (1 mM) and […] porcine pancreatic elastase (15 nM) were incubated at 37° C. with serial dilutions of the peptides (0.5% DMSO final) in assay buffer (50 mM Tris, pH8, 100 mM NaCl, 0.01% Tween20). The release of pNA was followed by monitoring the change in absorbance at 405 nm for 30 minutes. Control assays with the same assay set-up as above, but without peptide, ran linearly. The dose-response data were fitted to the 4-parameter Hill equation providing the IC50 value using Graphpad (Prism 5).

Test [2] has as its target T3, human neutrophil elastase (Homo sapiens, UniProt P08246).
T3 construct: purchased Serva Electrophoresis, Germany
T3 sequence (P08246 30-267): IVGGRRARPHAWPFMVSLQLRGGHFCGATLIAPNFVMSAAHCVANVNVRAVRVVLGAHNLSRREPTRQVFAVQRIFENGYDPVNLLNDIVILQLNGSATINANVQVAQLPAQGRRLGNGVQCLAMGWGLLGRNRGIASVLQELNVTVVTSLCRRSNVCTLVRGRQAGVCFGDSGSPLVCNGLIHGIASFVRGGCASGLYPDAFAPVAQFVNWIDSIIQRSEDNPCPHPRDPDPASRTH
Kind of test: Inhibition of human neutrophil elastase (MeOSuc-AAPV-pNA hydrolysis). The note with it: 10 nM enzyme, 0.3 mM substrate, 37° C., pH 8; read-out: Human neutrophil elastase (hNE) IC50. As to the method: 2.2. Inhibition of Human Neutrophil Elastase
The ability of the peptides of the invention to inhibit the hydrolysis activity of human neutrophil elastase (Serva Electrophoresis, Germany) using the synthetic tetrapeptidic substrate MeOSuc-AAPV-pNA (Bachem, Switzerland) was determined as follows:
The above substrate (0.3 mM) and human neutrophil elastase (10 nM) were incubated at 37° C. with serial dilutions of the peptides (1% DMSO final) in assay buffer (50 mM Tris, pH 8, 300 mM NaCl, 0.01% Tween20). The release of pNA was followed by monitoring the change in absorbance at 405 nm for 30 minutes. Control assays with the same assay set-up as above, but without peptide, ran linearly. The dose-response data were fitted to the 4-parameter Hill equation providing the IC50 value using Graphpad (Prism 5).

`CCCC[C@@H]1NC(=O)[C@H](CCCNC(=N)N)NC(=O)[C@@H]2CCCN2C(=O)[C@H]2CCCN2C(=O)[C@H](Cc2ccc(O)cc2)NC(=O)[C@H](CCCCN)NC(=O)[C@H](CCC(N)=O)NC(=O)[C@@H]2CCCN2C(=O)[C@@H]2CCCN2C(=O)[C@H]([C@@H](C)CC)NC(=O)[C@H](CO)NC(=O)[C@H](C)NC(=O)[C@H]([C@@H](C)O)NC1=O` [Example 6, Cyclo(-Arg-Nle-Thr-Ala-Ser-Ile-Pro-Pro-Gln-Lys-Tyr-^DPro-Pro-)] (cyclo(R[Nle]TASIPPQKY[dP]P)): at human proteinase 3, the IC50 is 2.37 µM and the hNE/hPr3 selectivity came to 153. Besides, in test [1], the IC50 was determined as 2.69 µM and the hNE/PPE selectivity came to 174. Moreover, in test [2], the IC50 was 0.0155 µM.
`C=CC[C@@H]1NC(=O)[C@H]([C@@H](C)O)NC(=O)[C@H](CCC(=O)O)NC(=O)[C@H](CCCNC(=N)N)NC(=O)[C@@H]2CCCN2C(=O)[C@H]2CCCN2C(=O)[C@H]([C@@H](C)O)NC(=O)[C@H](CCCCN)NC(=O)[C@H](CCC(N)=O)NC(=O)[C@@H]2CCCN2C(=O)[C@@H]2CCCN2C(=O)[C@H]([C@@H](C)CC)NC(=O)[C@H](CO)NC1=O` [Example 7, Cyclo(-Arg-Glu-Thr-AllylGly-Ser-Ile-Pro-Pro-Gln-Lys-Thr-^DPro-Pro-)] (cyclo(RET[AllylGly]SIPPQKT[dP]P)): at human proteinase 3, the IC50 worked out at 80.2 µM and the hNE/hPr3 selectivity is recorded as 5383. Further, in test [1], the IC50 came out at 59 µM and the hNE/PPE selectivity stood at 3960. For the same molecule, in test [2], the IC50 worked out at 0.0149 µM.
`CC[C@H](C)[C@@H]1NC(=O)[C@H](CO)NC(=O)[C@H](C)NC(=O)[C@H]([C@@H](C)O)NC(=O)[C@H](CCC(=O)O)NC(=O)[C@H](CCCNC(=N)N)NC(=O)[C@@H]2CCCN2C(=O)[C@H]2CCCN2C(=O)[C@H](CO)NC(=O)[C@H](CCCCN)NC(=O)[C@H](Cc2ccc(O)cc2)NC(=O)[C@@H]2CCCN2C(=O)[C@@H]2CCCN2C1=O` [Example 8, Cyclo(-Arg-Glu-Thr-Ala-Ser-Ile-Pro-Pro-Tyr-Lys-Ser-^DPro-Pro-)] (cyclo(RETASIPPYKS[dP]P)): on human proteinase 3, the IC50 was determined as 88.1 µM and the hNE/hPr3 selectivity is 5372. In addition, in test [1], the IC50 stood at 45.2 µM and the hNE/PPE selectivity is given as 2756. Also, the IC50 in test [2] was found to be 0.0164 µM.
Turning to `CC[C@H](C)[C@@H]1NC(=O)[C@H](CO)NC(=O)[C@H](C)NC(=O)[C@H]([C@@H](C)O)NC(=O)[C@H](CCC(=O)O)NC(=O)[C@H](CCCCNC(=N)N)NC(=O)[C@@H]2CCCN2C(=O)[C@H]2CCCN2C(=O)[C@H]([C@@H](C)O)NC(=O)[C@H](CCCCN)NC(=O)[C@H](CCC(N)=O)NC(=O)[C@@H]2CCCN2C(=O)[C@@H]2CCCN2C1=O` [Example 9, Cyclo(-hArg-Glu-Thr-Ala-Ser-Ile-Pro-Pro-Gln-Lys-Thr-^DPro-Pro-)] (cyclo([hArg]ETASIPPQKT[dP]P)), at human proteinase 3, the IC50 worked out at 70.1 µM and the hNE/hPr3 selectivity is 2958. In test [1], the IC50 is 83.4 µM and the hNE/PPE selectivity turned out to be 3519. Moreover, the IC50 in test [2] came to 0.0237 µM.
For `CC[C@H](C)[C@@H]1NC(=O)[C@H](CO)NC(=O)[C@H](C)NC(=O)[C@H]([C@@H](C)O)NC(=O)[C@H](CCC(=O)O)NC(=O)[C@H](CCCNC(=N)N)NC(=O)[C@@H]2CCCN2C(=O)[C@H]2CCCN2C(=O)[C@H](CCC(C)C)NC(=O)[C@H](CCCCN)NC(=O)[C@H](CCC(N)=O)NC(=O)[C@@H]2CCCN2C(=O)[C@@H]2CCCN2C1=O` [Example 10, Cyclo(-Arg-Glu-Thr-Ala-Ser-Ile-Pro-Pro-Gln-Lys-hLeu-^DPro-Pro-)] (cyclo(RETASIPPQK[hLeu][dP]P)), in that order: > 100 µM, >3333, > 100 µM, >3333 and 0.03 µM.
`CC[C@H](C)[C@@H]1NC(=O)[C@H](CO)NC(=O)[C@H](C)NC(=O)[C@H]([C@@H](C)O)NC(=O)[C@H](CCC(=O)O)NC(=O)[C@H](CCCNC(=N)N)NC(=O)[C@@H]2CCCN2C(=O)[C@H]2CCCN2C(=O)[C@H]([C@@H](C)O)NC(=O)[C@H](CCCCN)NC(=O)[C@H](CCC(N)=O)NC(=O)[C@@H]2CCCN2C(=O)[C@@H]2CCCN2C1=O` [Example 11, Cyclo(-Arg-Glu-Thr-Ala-Ser-Ile-Pro-Pro-Gln-Lys-Thr-^DPro-Pro-)] (cyclo(RETASIPPQKT[dP]P)): on human proteinase 3, the IC50 was > 100 µM and the hNE/hPr3 selectivity is reported as >8000. Further, in test [1], the IC50 is > 100 µM and the hNE/PPE selectivity is >8000. For the same molecule, the IC50 in test [2] was determined as 0.0125 µM.
Consider `CC[C@H](C)[C@@H]1NC(=O)[C@H](CO)NC(=O)[C@H](C)NC(=O)[C@H]([C@@H](C)O)NC(=O)[C@H](CCC(=O)O)NC(=O)[C@H](CCCNC(=N)N)NC(=O)[C@@H]2CCCN2C(=O)[C@H]2CCCN2C(=O)[C@H](CCCC(N)=O)NC(=O)[C@H](CCCCN)NC(=O)[C@H](Cc2ccc(O)cc2)NC(=O)[C@@H]2CCCN2C(=O)[C@@H]2CCCN2C1=O` [Example 12, Cyclo(-Arg-Glu-Thr-Ala-Ser-Ile-Pro-Pro-Tyr-Lys-hGln-^DPro-Pro-)] (cyclo(RETASIPPYK[Aad](NH2)[dP]P)), for which the IC50 on human proteinase 3 is > 100 µM; in test [1] it was > 100 µM; in test [2], 0.01 µM. Further, the hNE/hPr3 selectivity at human proteinase 3 is reported as >10000. For the same molecule, the hNE/PPE selectivity in test [1] is listed as >10000.
On to `CC[C@H](C)[C@@H]1NC(=O)[C@H](CO)NC(=O)[C@H](C)NC(=O)[C@H]([C@@H](C)O)NC(=O)[C@H](CCC(=O)O)NC(=O)[C@H](CCCNC(=N)N)NC(=O)[C@@H]2CCCN2C(=O)[C@H]2CCCN2C(=O)[C@H]([C@@H](C)O)NC(=O)[C@H](CCCCN)NC(=O)[C@H](Cc2ccc(O)cc2)NC(=O)[C@@H]2CCCN2C(=O)[C@@H]2CCCN2C1=O` [Example 13, Cyclo(-Arg-Glu-Thr-Ala-Ser-Ile-Pro-Pro-Tyr-Lys-Thr-^DPro-Pro-)] (cyclo(RETASIPPYKT[dP]P)), for which, on human proteinase 3, the IC50 is > 100 µM and the hNE/hPr3 selectivity is >3268. Moreover, in test [1], the IC50 was > 100 µM and the hNE/PPE selectivity is >3268. Moreover, the IC50 in test [2] was found to be 0.0306 µM.
For the molecule `CC[C@H](C)[C@@H]1NC(=O)[C@H](CO)NC(=O)[C@H](C)NC(=O)[C@H]([C@@H](C)O)NC(=O)[C@H](CCC(=O)O)NC(=O)[C@H](CCCNC(=N)N)NC(=O)[C@@H]2CCCN2C(=O)[C@H]2CCCN2C(=O)[C@H](Cc2c[nH]cn2)NC(=O)[C@H](CCCCN)NC(=O)[C@H](Cc2ccc(O)cc2)NC(=O)[C@@H]2CCCN2C(=O)[C@@H]2CCCN2C1=O` [Example 14, Cyclo(-Arg-Glu-Thr-Ala-Ser-Ile-Pro-Pro-Tyr-Lys-His-^DPro-Pro-)] (cyclo(RETASIPPYKH[dP]P)), on human proteinase 3, the IC50 was 77.6 µM and the hNE/hPr3 selectivity was determined as 3823. Moreover, in test [1], the IC50 was found to be 4.65 µM and the hNE/PPE selectivity worked out at 229. Besides, in test [2], the IC50 came out at 0.0203 µM.

Usually IC50 stands for the concentration that inhibits the measured activity by half.
